Assay results taken from the NIST ThermoML archive (doi:10.1016/j.fluid.2016.02.030).

Experiment: osmotic coefficient (dimensionless); mn = molality of the nth substance listed, in mol/kg
Details: 308.15 K, Liquid, omometer

OC[C@@H](O)[C@H](O)[C@@H](O)CO [xylitol] + O
Details	osmotic coefficient
m1 = 0.0663	1.002
m1 = 0.1332	1.002
m1 = 0.2029	1.002
m1 = 0.2718	1.002
m1 = 0.3466	1.003
m1 = 0.4199	1.004
m1 = 0.495	1.005
m1 = 0.5643	1.005
m1 = 0.6343	1.005
m1 = 0.7296	1.006
m1 = 0.792	1.007
m1 = 0.8908	1.008
m1 = 0.9999	1.011
m1 = 1.143	1.012
m1 = 1.297	1.015
m1 = 1.474	1.017
m1 = 2.027	1.026
m1 = 2.646	1.036
m1 = 3.289	1.042
m1 = 4.413	1.048

O=C[C@H](O)[C@H](O)[C@H](O)CO [D-ribose] + O
Details	osmotic coefficient
m1 = 0.0338	0.9992
m1 = 0.0672	0.988
m1 = 0.1353	0.9826
m1 = 0.2041	0.9786
m1 = 0.2789	0.9769
m1 = 0.3505	0.9753
m1 = 0.4242	0.9745
m1 = 0.499	0.9743
m1 = 0.5801	0.9736
m1 = 0.6538	0.9734
m1 = 0.7165	0.973
m1 = 0.7426	0.9732
m1 = 0.8289	0.973
m1 = 0.9054	0.9732
m1 = 1.038	0.9735
m1 = 1.183	0.9735
m1 = 1.453	0.9745
m1 = 1.988	0.9774
m1 = 2.594	0.9857
m1 = 3.266	0.9944

OC[C@@H](O)[C@@H](O)[C@H](O)[C@@H](O)CO [D-sorbitol] + O
Details	osmotic coefficient
m1 = 0.0278	0.9979
m1 = 0.0558	1.001
m1 = 0.111	0.9992
m1 = 0.1676	1.003
m1 = 0.2296	1.002
m1 = 0.2892	1.004
m1 = 0.3523	1.003
m1 = 0.4124	1.004
m1 = 0.4781	1.003
m1 = 0.5436	1.003
m1 = 0.6109	1.003
m1 = 0.6764	1.003
m1 = 0.7778	1.003
m1 = 0.8812	1.004
m1 = 0.9996	1.004
m1 = 1.112	1.006
m1 = 1.284	1.008
m1 = 1.723	1.013
m1 = 2.342	1.027
m1 = 2.956	1.041
m1 = 3.645	1.057

OC[C@H]1O[C@H](OC[C@H]2O[C@H](O[C@]3(CO)O[C@H](CO)[C@@H](O)[C@@H]3O)[C@H](O)[C@@H](O)[C@@H]2O)[C@H](O)[C@@H](O)[C@H]1O [D-raffinose] + O
Details	osmotic coefficient
m1 = 0.0343	1.002
m1 = 0.1059	1.025
m1 = 0.1837	1.04
m1 = 0.2667	1.062
m1 = 0.3581	1.083
m1 = 0.4515	1.117
m1 = 0.4902	1.134
m1 = 0.6205	1.168

OC[C@H]1O[C@@](CO)(O[C@H]2O[C@H](CO)[C@@H](O)[C@H](O)[C@H]2O)[C@@H](O)[C@@H]1O [D-sucrose] + O
Details	osmotic coefficient
m1 = 0.0296	0.9997
m1 = 0.0581	1.001
m1 = 0.0904	1.008
m1 = 0.1209	1.013
m1 = 0.1534	1.017
m1 = 0.1988	1.019
m1 = 0.2535	1.025
m1 = 0.3157	1.028
m1 = 0.3938	1.032
m1 = 0.477	1.035
m1 = 0.5567	1.039
m1 = 0.5822	1.04
m1 = 0.648	1.042
m1 = 0.7265	1.047
m1 = 0.8492	1.053
m1 = 0.971	1.058
m1 = 1.087	1.065
m1 = 1.186	1.067
m1 = 1.275	1.074
m1 = 1.996	1.149
m1 = 2.679	1.202
m1 = 3.412	1.248
m1 = 3.927	1.276

O=C(CO)[C@@H](O)[C@H](O)[C@H](O)CO [D-fructose] + O
Details	osmotic coefficient
m1 = 0.0559	0.9986
m1 = 0.1125	0.9958
m1 = 0.1714	0.9944
m1 = 0.2296	0.9949
m1 = 0.2923	0.9947
m1 = 0.3466	0.9945
m1 = 0.4185	0.9946
m1 = 0.4792	0.9949
m1 = 0.5468	0.9947
m1 = 0.614	0.9951
m1 = 0.6925	0.9951
m1 = 0.7872	0.9955
m1 = 0.9018	0.995
m1 = 1.022	0.9947
m1 = 1.139	0.9949
m1 = 1.266	0.9949
m1 = 1.741	0.9972
m1 = 2.401	1.006
m1 = 2.95	1.014
m1 = 3.625	1.027
m1 = 5.424	1.069

O=C[C@@H](O)[C@@H](O)[C@H](O)[C@H](O)CO [D-mannose] + O
Details	osmotic coefficient
m1 = 0.1128	0.9933
m1 = 0.2298	0.989
m1 = 0.3533	0.984
m1 = 0.4798	0.9828
m1 = 0.6097	0.9824
m1 = 0.7659	0.9832
m1 = 0.9375	0.9836
m1 = 1.117	0.9842
m1 = 1.304	0.9852
m1 = 1.829	0.9903
m1 = 2.544	0.9978
m1 = 3.659	1.017

O=C[C@H](O)[C@@H](O)[C@H](O)CO [D-xylose] + O
Details	osmotic coefficient
m1 = 5.333	1.007
m1 = 5.362	1.002
m1 = 5.4	0.9966
m1 = 5.435	0.9919
m1 = 5.468	0.9881
m1 = 5.502	0.987
m1 = 5.516	0.9868
m1 = 5.53	0.9859
m1 = 5.542	0.9858
m1 = 5.551	0.9857
m1 = 5.559	0.9852
m1 = 5.566	0.9853
m1 = 5.574	0.985
m1 = 5.582	0.9853
m1 = 5.59	0.9852
m1 = 5.598	0.9866
m1 = 5.604	0.9869
m1 = 5.611	0.9874
m1 = 5.619	0.9894
m1 = 5.625	0.997

O=C[C@H](O)[C@@H](O)[C@@H](O)[C@H](O)CO [(+)-galactose] + O
Details	osmotic coefficient
m1 = 0.0558	0.9999
m1 = 0.1149	1.001
m1 = 0.1727	1.004
m1 = 0.2306	1.003
m1 = 0.2878	1.004
m1 = 0.3548	1.006
m1 = 0.4098	1.006
m1 = 0.4829	1.007
m1 = 0.5526	1.008
m1 = 0.6174	1.008
m1 = 0.6818	1.009
m1 = 0.7847	1.01
m1 = 0.8958	1.011
m1 = 1.009	1.012
m1 = 1.138	1.013
m1 = 1.308	1.016
m1 = 1.85	1.025
m1 = 2.61	1.045

O=C[C@H](O)[C@@H](O)[C@H](O)[C@H](O)CO [D-glucose] + O
Details	osmotic coefficient
m1 = 0.0557	1.002
m1 = 0.1126	1.005
m1 = 0.1685	1.004
m1 = 0.2236	1.004
m1 = 0.2913	1.004
m1 = 0.3539	1.005
m1 = 0.4081	1.006
m1 = 0.4775	1.006
m1 = 0.5382	1.006
m1 = 0.5708	1.008
m1 = 0.6209	1.008
m1 = 0.6815	1.008
m1 = 0.7347	1.009
m1 = 0.7963	1.009
m1 = 0.9085	1.01
m1 = 1.019	1.012
m1 = 1.109	1.014
m1 = 1.215	1.015
m1 = 1.323	1.017
m1 = 1.569	1.022
m1 = 1.841	1.03
m1 = 2.386	1.044
m1 = 2.945	1.061
m1 = 3.626	1.078
m1 = 4.847	1.11

OC[C@@H](O)[C@@H](O[C@H]1O[C@H](CO)[C@@H](O)[C@H](O)[C@H]1O)[C@H](O)[C@@H](O)CO [4-O-α-D-glucopyranosyl-D-glucitol] + O
Details	osmotic coefficient
m1 = 0.0292	0.9903
m1 = 0.1187	0.9976
m1 = 0.219	1.012
m1 = 0.3226	1.019
m1 = 0.4282	1.028
m1 = 0.5127	1.031
m1 = 0.5925	1.032
m1 = 0.774	1.049
m1 = 0.9158	1.06
m1 = 1.054	1.067
m1 = 1.261	1.081
m1 = 1.918	1.151
m1 = 2.645	1.217
m1 = 3.591	1.272

O=C[C@H](O)[C@@H](O)[C@@H](O)CO [L-arabinose] + O
Details	osmotic coefficient
m1 = 0.0332	0.9993
m1 = 0.0672	0.9973
m1 = 0.1346	0.9965
m1 = 0.2071	0.995
m1 = 0.2766	0.9956
m1 = 0.3435	0.9951
m1 = 0.4151	0.9944
m1 = 0.4952	0.9947
m1 = 0.5785	0.9949
m1 = 0.6498	0.9944
m1 = 0.8204	0.9948
m1 = 0.9055	0.9945
m1 = 1.041	0.9945
m1 = 1.177	0.9944
m1 = 1.313	0.9942
m1 = 1.659	0.995
m1 = 2.402	1.002
m1 = 3.272	1.016

O=C[C@H](O)[C@@H](O)[C@H](O[C@@H]1O[C@H](CO)[C@H](O)[C@H](O)[C@H]1O)[C@H](O)CO [4-O-β-D-galactopyranosyl-D-glucose] + O
Details	osmotic coefficient
m1 = 0.014	0.9946
m1 = 0.0578	1.011
m1 = 0.1025	1.022
m1 = 0.1286	1.03
m1 = 0.1795	1.046
m1 = 0.2313	1.058
m1 = 0.2909	1.065
m1 = 0.3217	1.067
